Experimental data: article PMC3166973 (Journal of structural biology, 2011)
Substitutions are numbered along the chain they refer to. Numbers in names are those of the source.

How the values were obtained:
[1] = target: T1, pjDHFR (Pneumocystis jirovecii, UniProt Q9UUP5); experiment: Standard DHFR assay; conditions: read-out: Km NADPH, substrate at saturating concentration
T1 sequence (Q9UUP5 1-206): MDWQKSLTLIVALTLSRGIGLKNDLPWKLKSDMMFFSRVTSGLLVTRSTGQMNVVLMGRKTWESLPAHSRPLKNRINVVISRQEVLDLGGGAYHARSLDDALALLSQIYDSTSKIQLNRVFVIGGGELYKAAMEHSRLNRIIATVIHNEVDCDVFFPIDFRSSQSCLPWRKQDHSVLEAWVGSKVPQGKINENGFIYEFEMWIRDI

[2] = target: pcDHFR (Pneumocystis carinii, UniProt P16184); format: biochemical; conditions: read-out: Km NADPH
pcDHFR, sequence (P16184 whole entry): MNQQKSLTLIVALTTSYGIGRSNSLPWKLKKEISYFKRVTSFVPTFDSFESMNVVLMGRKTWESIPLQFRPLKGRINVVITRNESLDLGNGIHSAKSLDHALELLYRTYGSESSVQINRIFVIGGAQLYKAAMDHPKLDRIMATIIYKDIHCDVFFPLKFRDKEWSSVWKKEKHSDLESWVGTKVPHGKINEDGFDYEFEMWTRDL

[3] = target: T2, hDHFR Q35S/N64S (Homo sapiens, UniProt P00374, N65S/Q36S); experiment: Standard DHFR assay, kinetic constants; format: biochemical; conditions: read-out: Km NADPH
T2 sequence (P00374 1-187 Q36S/N65S): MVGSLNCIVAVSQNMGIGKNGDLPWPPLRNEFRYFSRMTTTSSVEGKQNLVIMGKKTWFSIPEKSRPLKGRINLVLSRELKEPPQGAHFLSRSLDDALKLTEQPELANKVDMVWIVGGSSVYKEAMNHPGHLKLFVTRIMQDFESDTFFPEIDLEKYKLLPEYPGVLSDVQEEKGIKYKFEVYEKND

[4] = target: T3, hDHFR Q35K/N64S (Homo sapiens, UniProt P00374, N65S/Q36K); experiment: Standard DHFR assay, kinetic constants; format: biochemical; conditions: read-out: Km NADPH
T3 sequence (P00374 1-187 Q36K/N65S): T2 sequence (P00374 1-187 Q36S/N65S) with S36K

[5] = target: T4, hDHFR Q35K (Homo sapiens, UniProt P00374, Q36K); experiment: Standard DHFR assay, kinetic constants; format: biochemical; conditions: read-out: Km NADPH
T4 sequence (P00374 1-187 Q36K): T2 sequence (P00374 1-187 Q36S/N65S) with S36K, S65N

[6] = target: T5, hDHFR N64F (Homo sapiens, UniProt P00374, N65F); experiment: Standard DHFR assay, kinetic constants; format: biochemical; conditions: read-out: Km NADPH
T5 sequence (P00374 1-187 N65F): T2 sequence (P00374 1-187 Q36S/N65S) with S36Q, S65F

[7] = target: T6, hDHFR Q35S (Homo sapiens, UniProt P00374, Q36S); experiment: Standard DHFR assay, kinetic constants; format: biochemical; conditions: read-out: Km NADPH
T6 sequence (P00374 1-187 Q36S): T2 sequence (P00374 1-187 Q36S/N65S) with S65N

[8] = target: T7, hDHFR N64S (Homo sapiens, UniProt P00374, N65S); experiment: Standard DHFR assay, kinetic constants; format: biochemical; conditions: read-out: Km NADPH
T7 sequence (P00374 1-187 N65S): T2 sequence (P00374 1-187 Q36S/N65S) with S36Q

[9] = target: T8, hDHFR Q35S/N64F (Homo sapiens, UniProt P00374, N65F/Q36S); experiment: Standard DHFR assay, kinetic constants; format: biochemical; conditions: read-out: Km NADPH
T8 sequence (P00374 1-187 Q36S/N65F): T2 sequence (P00374 1-187 Q36S/N65S) with S65F

[10] = target: T9, hDHFR (Homo sapiens, UniProt P00374); experiment: Standard DHFR assay, kinetic constants; format: biochemical; conditions: read-out: Km NADPH; wild type hDHFR
T9 sequence (P00374 1-187): T2 sequence (P00374 1-187 Q36S/N65S) with S36Q, S65N

[11] = target: T10, hDHFR Q35K/N64F (Homo sapiens, UniProt P00374, N65F/Q36K); experiment: Standard DHFR assay, kinetic constants; format: biochemical; conditions: read-out: Km NADPH
T10 sequence (P00374 1-187 Q36K/N65F): T2 sequence (P00374 1-187 Q36S/N65S) with S36K, S65F

[12] = substrate: Nc1nc2c(c(=O)[nH]1)N=C(CNc1ccc(C(=O)N[C@@H](CCC(=O)O)C(=O)O)cc1)CN2; experiment: purified protein, by the assay type; conditions: pH 7.4

Molecule: NC(=O)C1=CN([C@@H]2O[C@H](COP(=O)(O)OP(=O)(O)OC[C@H]3O[C@@H](n4cnc5c(N)ncnc54)[C@H](OP(=O)(O)O)[C@@H]3O)[C@@H](O)[C@H]2O)C=CC1 [NADPH]
- Km [1]: 19 ± 1 µM
- Km [2]: 16 ± 2 µM
- Km [3]: 5.3 ± 1.5 µM
- Km [4]: 6.6 ± 1.8 µM
- Km [5]: 12.5 µM
- Km [6]: 7.5 ± 3.1 µM
- Km [7]: 3.8 ± 1.4 µM
- Km [8]: 6.3 µM
- Km [9]: 5.6 ± 0.5 µM
- Km [10]: 4.5 ± 1.2 µM
- Km [11]: 5.7 ± 1.1 µM

B1: hDHFR Q35K/N64S (Homo sapiens; N65S/Q36K) (protein)
chain: T2 sequence (P00374 1-187 Q36S/N65S) with S36K
- Km ([12]; other: hDHFR Q35K/N64S, 37.0 °C): 0.7 ± 0.2 (n=6) μM

B2: hDHFR Q35S (Homo sapiens; Q36S) (protein)
chain: T2 sequence (P00374 1-187 Q36S/N65S) with S65N
- Km ([12]; other: hDHFR Q35S, 37.0 °C): 0.7 ± 0.2 (n=4) μM

B3: hDHFR (Homo sapiens) (protein)
chain: T2 sequence (P00374 1-187 Q36S/N65S) with S36Q, S65N
- Km ([12]; other: wild type hDHFR, 37.0 °C): 0.7 ± 0.1 (n=8) μM

B4: hDHFR Q35S/N64F (Homo sapiens; N65F/Q36S) (protein)
chain: T2 sequence (P00374 1-187 Q36S/N65S) with S65F
- Km ([12]; other: hDHFR Q35S/N64F, 37.0 °C): 0.7 ± 0.2 (n=5) μM

B5: hDHFR N64S (Homo sapiens; N65S) (protein)
chain: T2 sequence (P00374 1-187 Q36S/N65S) with S36Q
- Km ([12]; other: hDHFR N64S, 37.0 °C): 0.9 ± 0.3 (n=3) μM

B6: pjDHFR (Pneumocystis jirovecii) (protein)
chain: T1 sequence (Q9UUP5 1-206)
- Km ([12]; other: pjDHFR, cofactor at saturating concentration): 2.2 ± 0.2^1 (n=13) μM
